Measurements from US20160101076A1, “Use of Sumoylation Inhibitors for Treating Cancer” (priority 2013, published 2016).
Peptide text beside a SMILES is read from it. * marks the point of attachment. Cbz = O=C(OCc1ccccc1)*

What was measured:
[1] = test system: sumoylated TFAP2A in BT549 cells; test: Sumoylation of TFAP2A in BT549 cells with peroxide / MG-132; format: cell-based, human
Protocol: FIG. 15A-15B. Sumoylated TFAP2A in Basal Cells Induced with Peroxide. Sumoylation of TFAP2A was analyzed in the basal cell line BT549 with and without treatment with peroxide. FIG. 15A. BT549 cells co-transfected with vectors for TFAP2A and either SUMO-1, -2 or -3 and treated without or with peroxide, as indicated. […] Experiment in A was performed in the absence of the proteasome inhibitor MG-132. FIG. 15B. Similar experiments performed with MG-132 treatment either without or with peroxide.
Sumoylation in vitro was done using SUMOlink™ SUMO-1 Kit and SUMOlink™ SUMO-2/3 Kit (Carlsbad). SUMO plasmids and pcDNA3.1-TFAP2A or K10R mutant were used for in vitro protein production. MCF-7 were transfected for 48 hours with […] SUMO expressing plasmids (Feng et al., 2013) that were kindly provided by Dr Xiaolu Yang (University of Pennsylvania). As indicated in some experiments, the proteasome inhibitor MG132 was added as described (Chu and Yang, 2011).

FREM2 and RET expression = test: Estrogen responsiveness of FREM2 expression, Tamoxifen treatment; format: cell-based; details: FIG. 11E

## CC(C)C[C@@H](C=O)NC(=O)[C@H](CC(C)C)NC(=O)[C@H](CC(C)C)NC(=O)OCc1ccccc1 [MG-132] (Cbz-Leu-Leu-Leu-aldehyde)
[1]; BT549 cells, MG-132 treatment without or with peroxide, FIG. 15B
  identification of the sumoylated forms of TFAP2A: enhanced identification

## CC/C(=C(\c1ccccc1)c1ccc(OCCN(C)C)cc1)c1ccccc1 [Tamoxifen]
FREM2 and RET expression
  FREM2 expression: not estrogen responsive
  RET expression: appropriately repressed

## OO [peroxide]
[1]; BT549 cells co-transfected with TFAP2A and SUMO-1, -2 or -3, with vs without peroxide, FIG. 15A
  sumoylated TFAP2A: Induction
